From patent US11205502B2, “Processing method and processing apparatus for efficacy of combined drug” (Institute of radiation medicine, academy of military …, priority 2015, dated 2021)

Test system: human lung cancer cell H460 lines
Experiment: MTT method, inhibition of growth of H460 by etoposide, vincristine, 5-fluorouracil, adriamycin and three-drug combinations; expected additive effect by equivalent dose conversion
Type: cell-based
Details: for Efficacy of C / Efficacy of A / Efficacy of B: from fitted single-use equation
Source text: Title: there are many application schemes for a chemotherapeutic drug in lung cancer treatment. The chemotherapeutic drug in these schemes mainly includes the followings that belong to a topoisomerase inhibitor, a microtubule inhibitor, a metabolic inhibitor and an alkylating agent from types. One representative drug is successively selected from the four types of the drugs and respectively is etoposide (A), vincristine (B), 5-fluorouracil (C) and adriamycin (D). For any three combined application schemes, the inhibition effect to growth of human lung cancer cell H460 lines is detected with an MTT method. The three schemes successively are combinations of four combined drugs of A+B+C, A+B+D, A+C+D and B+C+D and the synergistic, additive and antagonistic effects are evaluated quantitatively. A:B:C=12.5:2:45 (μg/ml+μg/ml+μg/ml) A+B+C combination: A:B:D=12.5:2:4 (μg/ml+μg/ml+μg/ml) A+B+D combination: A:C:D=12.5:45:4 (μg/ml+μg/ml+μg/ml) A+C+D combination: B:C:D=2:45:4 (μg/ml+μg/ml+μg/ml) B+C+D combination:
For the etoposide (A), vincristine (B) and 5-fluorouracil (C), dose-effect relationship data of single drugs and dose-effect relationship data in the combined use A:B:C=12.5:2:45 (μg/ml+μg/ml+μg/ml), see a table 9 and a table 10.
Step 2, the dose is converted sequentially, and each dose-effect relationship data formed into an expected additive efficacy curve band under a combined condition is calculated.
The equivalent dose conversion is performed on combinations of two drugs of A+B, A+C and B+C sequentially first and then the equivalent dose conversion is performed on (A+B)+C, (A+C)+B and (B+C)+A. An expression for an expected additive effect of the three drugs in the combined use is as follows.
Y(A+B+C)=[Y(A+B)C, Y(A+C)+B, Y(B+c)+A] Hi^Lo↓, wherein Hi^Lo↓ Indicates function values of units in a number set and should be arranged from low to high. The Y(A+B+C)=[Y(A+B)+C, Y(A+C)+B, Y(B+c)+A]

[1] = A:B:C=12.5:2:45 fixed proportion

O=c1[nH]cc(F)c(=O)[nH]1 [5-fluorouracil (C), 5-fluorouracil]
dose range of the additive effect, 5-fluorouracil (C) [1]: 6.5815 to 19.7579 µg/mL | Efficacy of C (C 0.00017166 μg/ml): −2.8810% | Efficacy of C (C 0.00068665 μg/ml): −2.7475% | Efficacy of C (C 0.00274658 μg/ml): −2.3331% | Efficacy of C (C 0.01098633 μg/ml): −1.0631% | Efficacy of C (C 0.04394531 μg/ml): 2.6806% | Efficacy of C (C 0.17578125 μg/ml): 12.5608% | Efficacy of C (C 0.703125 μg/ml): 32.4840% | Efficacy of C (C 2.8125 μg/ml): 57.2443% | Efficacy of C (C 11.25 μg/ml): 74.5929% | Efficacy of C (C 45 μg/ml): 82.4752% | inhibition at 0.000686646 µg/mL (Homo sapiens, NCI-H460, 5-fluorouracil (C) 0.000686646 μg/ml single use, read-out: Inhibition rate): -0.33% | inhibition at 0.00274658 µg/mL (Homo sapiens, NCI-H460, 5-fluorouracil (C) 0.002746582 μg/ml single use, read-out: Inhibition rate): 6.67% | inhibition at 0.0109863 µg/mL (Homo sapiens, NCI-H460, 5-fluorouracil (C) 0.010986328 μg/ml single use, read-out: Inhibition rate): -3.78% | inhibition at 0.0439453 µg/mL (Homo sapiens, NCI-H460, 5-fluorouracil (C) 0.043945313 μg/ml single use, read-out: Inhibition rate): -6.89% | inhibition at 0.175781 µg/mL (Homo sapiens, NCI-H460, 5-fluorouracil (C) 0.17578125 μg/ml single use, read-out: Inhibition rate): 7.91% | inhibition at 0.703125 µg/mL (Homo sapiens, NCI-H460, 5-fluorouracil (C) 0.703125 μg/ml single use, read-out: Inhibition rate): 40% | inhibition at 2.8125 µg/mL (Homo sapiens, NCI-H460, 5-fluorouracil (C) 2.8125 μg/ml single use, read-out: Inhibition rate): 60.8% | inhibition at 11.25 µg/mL (Homo sapiens, NCI-H460, 5-fluorouracil (C) 11.25 μg/ml single use, read-out: Inhibition rate): 61.4% | inhibition at 45 µg/mL (Homo sapiens, NCI-H460, 5-fluorouracil (C) 45 μg/ml single use, read-out: Inhibition rate): 84.5% | inhibition at 180 µg/mL (Homo sapiens, NCI-H460, 5-fluorouracil (C) 180 μg/ml single use, read-out: Inhibition rate): 91%

COc1cc([C@@H]2c3cc4c(cc3[C@@H](O[C@@H]3O[C@@H]5CO[C@@H](C)O[C@H]5[C@H](O)[C@H]3O)[C@H]3COC(=O)[C@H]23)OCO4)cc(OC)c1O [Etoposide (A), etoposide]
Efficacy of A (A 0.00004768 μg/ml): −1.3189% | Efficacy of A (A 0.00019073 μg/ml): 0.5342% | Efficacy of A (A 0.00076294 μg/ml): 3.2432% | Efficacy of A (A 0.00305176 μg/ml): 7.1153% | Efficacy of A (A 0.01220703 μg/ml): 12.4756% | Efficacy of A (A 0.048828125 μg/ml): 19.5765% | Efficacy of A (A 0.1953125 μg/ml): 28.4535% | Efficacy of A (A 0.78125 μg/ml): 38.7811% | Efficacy of A (A 3.125 μg/ml): 49.8373% | Efficacy of A (A 12.5 μg/ml): 60.6678% | dose range of the additive effect, etoposide (A) [1]: 1.8282 to 5.4883 µg/mL | inhibition at 0.000190735 µg/mL (Homo sapiens, NCI-H460, Etoposide (A) 0.000190735 μg/ml single use, read-out: Inhibition rate): 1.38% | inhibition at 0.000762939 µg/mL (Homo sapiens, NCI-H460, Etoposide (A) 0.000762939 μg/ml single use, read-out: Inhibition rate): 3.73% | inhibition at 0.00305176 µg/mL (Homo sapiens, NCI-H460, Etoposide (A) 0.003051758 μg/ml single use, read-out: Inhibition rate): -0.19% | inhibition at 0.012207 µg/mL (Homo sapiens, NCI-H460, Etoposide (A) 0.012207031 μg/ml single use, read-out: Inhibition rate): 16.7% | inhibition at 0.0488281 µg/mL (Homo sapiens, NCI-H460, Etoposide (A) 0.048828125 μg/ml single use, read-out: Inhibition rate): 17.2% | inhibition at 0.195312 µg/mL (Homo sapiens, NCI-H460, Etoposide (A) 0.1953125 μg/ml single use, read-out: Inhibition rate): 30.6% | inhibition at 0.78125 µg/mL (Homo sapiens, NCI-H460, Etoposide (A) 0.78125 μg/ml single use, read-out: Inhibition rate): 41.5% | inhibition at 3.125 µg/mL (Homo sapiens, NCI-H460, Etoposide (A) 3.125 μg/ml single use, read-out: Inhibition rate): 49.6% | inhibition at 12.5 µg/mL (Homo sapiens, NCI-H460, Etoposide (A) 12.5 μg/ml single use, read-out: Inhibition rate): 55% | inhibition at 50 µg/mL (Homo sapiens, NCI-H460, Etoposide (A) 50 μg/ml single use, read-out: Inhibition rate): 74.4%

CC[C@]1(O)C[C@H]2CN(CCc3c([nH]c4ccccc34)[C@@](C(=O)OC)(c3cc4c(cc3OC)N(C=O)[C@H]3[C@@](O)(C(=O)OC)[C@H](OC(C)=O)[C@]5(CC)C=CCN6CC[C@]43[C@@H]65)C2)C1 [Vincristine (B), vincristine]
dose range of the additive effect, vincristine (B) [1]: 0.2925 to 0.8781 µg/mL | Efficacy of B (B 0.00000763 μg/ml): 4.9016% | Efficacy of B (B 0.00003052 μg/ml): 4.9048% | Efficacy of B (B 0.00012207 μg/ml): 4.9268% | Efficacy of B (B 0.00048828 μg/ml): 5.0764% | Efficacy of B (B 0.00195313 μg/ml): 6.0768% | Efficacy of B (B 0.0078125 μg/ml): 12.0757% | Efficacy of B (B 0.03125 μg/ml): 33.3731% | Efficacy of B (B 0.125 μg/ml): 55.3101% | Efficacy of B (B 0.5 μg/ml): 61.7291% | Efficacy of B (B 2 μg/ml): 62.8101% | inhibition at 30.52 pg/mL (Homo sapiens, NCI-H460, Vincristine (B) 0.000030518 μg/ml single use, read-out: Inhibition rate): 2.75% | inhibition at 0.00012207 µg/mL (Homo sapiens, NCI-H460, Vincristine (B) 0.00012207 μg/ml single use, read-out: Inhibition rate): -0.11% | inhibition at 0.000488281 µg/mL (Homo sapiens, NCI-H460, Vincristine (B) 0.000488281 μg/ml single use, read-out: Inhibition rate): 13.2% | inhibition at 0.00195312 µg/mL (Homo sapiens, NCI-H460, Vincristine (B) 0.001953125 μg/ml single use, read-out: Inhibition rate): 8.91% | inhibition at 0.0078125 µg/mL (Homo sapiens, NCI-H460, Vincristine (B) 0.0078125 μg/ml single use, read-out: Inhibition rate): 6.25% | inhibition at 0.03125 µg/mL (Homo sapiens, NCI-H460, Vincristine (B) 0.03125 μg/ml single use, read-out: Inhibition rate): 37% | inhibition at 0.125 µg/mL (Homo sapiens, NCI-H460, Vincristine (B) 0.125 μg/ml single use, read-out: Inhibition rate): 53.2% | inhibition at 0.5 µg/mL (Homo sapiens, NCI-H460, Vincristine (B) 0.5 μg/ml single use, read-out: Inhibition rate): 55.9% | inhibition at 2 µg/mL (Homo sapiens, NCI-H460, Vincristine (B) 2 μg/ml single use, read-out: Inhibition rate): 65.8% | inhibition at 8 µg/mL (Homo sapiens, NCI-H460, Vincristine (B) 8 μg/ml single use, read-out: Inhibition rate): 66.3%
